Columns and labels:
S. aureus DSM 20231 [1] = assay: Bliss interaction score (quartile over a dose matrix) (fitness difference); higher = more antagonism (negative = synergy)
Outline: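 Fitness was derived from optical density at entry into stationary phase, divided by the robust mean of the no-drug wells on the same plate. That reading was taken as OD595, and the ratio was capped at 1. Single-drug fitness was inferred from the combination data. The Bliss score, observed fitness minus the expected product of single-drug fitness, was summarised as quartiles over technical, biological and donor/recipient replicates.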

B. subtilis 168 = assay: fitness (endpoint OD595 vs no drug) (fraction); higher = more growth
Outline: (§1)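 Volumes were 30 µl per well, or 55 µl for S. pneumoniae, in 384-well plates inoculated at OD595 0.01. Media were TSB, LB Lennox or CY at 37 °C, and OD595 was read every 30 min for 14 h with first-reading background subtraction. Fitness is the ratio of optical density at stationary-phase entry to the robust mean of no-drug controls. That ratio is capped at 1.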

S. aureus DSM 20231 [2] = assay: as above
Outline: as §1

S. aureus Newman = assay: as above
Outline: as §1

S. pneumoniae D39V = assay: as above
Outline: as §1
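For Bliss interaction score (quartile over a dose matrix) in this document: first quartile when negative (synergy) and third quartile when positive (antagonism).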

CC[C@H]1OC(=O)[C@H](C)[C@@H](O[C@H]2C[C@@](C)(OC)[C@@H](O)[C@H](C)O2)[C@H](C)[C@@H](O[C@@H]2O[C@H](C)C[C@H](N(C)C)[C@H]2O)[C@](C)(O)C[C@@H](C)CN(C)[C@H](C)[C@@H](O)[C@]1(C)O [Azithromycin] + CN1CCN(C2=Nc3ccccc3Oc3ccc(Cl)cc32)CC1 [Loxapine]
Conditions | Bliss interaction score
S. aureus DSM 20231 [1] | -0.147

CC[C@H]1OC(=O)[C@H](C)[C@@H](O[C@H]2C[C@@](C)(OC)[C@@H](O)[C@H](C)O2)[C@H](C)[C@@H](O[C@@H]2O[C@H](C)C[C@H](N(C)C)[C@H]2O)[C@](C)(O)C[C@@H](C)CN(C)[C@H](C)[C@@H](O)[C@]1(C)O [Azithromycin] + CN(C)[C@@H]1C(O)=C(C(N)=O)C(=O)[C@@]2(O)C(O)=C3C(=O)c4c(O)ccc(Cl)c4[C@@](C)(O)[C@H]3C[C@@H]12 [Chlortetracycline]
fitness
Conditions | first compound 0.125 µg/mL | first compound 0.25 µg/mL | first compound 0.5 µg/mL
B. subtilis 168, partner 0.0475 µg/mL | – | 0.824 | –
S. aureus DSM 20231 [2], partner 0.012 µg/mL | – | – | 0.0274
S. aureus DSM 20231 [2], partner 0.024 µg/mL | 0.112 | 0.0335 | 0.0241
S. aureus DSM 20231 [2], partner 0.048 µg/mL | 0.0779 | 0.0451 | 0.0364

one replicate
Conditions | fitness
B. subtilis 168, first compound 2 µg/mL, partner 0.0475 µg/mL | 0.0292
B. subtilis 168, first compound 2 µg/mL, partner 0.095 µg/mL | 0.0192
B. subtilis 168, first compound 2 µg/mL, partner 0.19 µg/mL | 0.025
S. aureus DSM 20231 [2], first compound 0.125 µg/mL, partner 0.006 µg/mL | 0.629
S. aureus DSM 20231 [2], first compound 0.25 µg/mL, partner 0.006 µg/mL | 0.46
S. aureus DSM 20231 [2], first compound 0.5 µg/mL, partner 0.006 µg/mL | 0.0187

CC[C@H]1OC(=O)[C@H](C)[C@@H](O[C@H]2C[C@@](C)(OC)[C@@H](O)[C@H](C)O2)[C@H](C)[C@@H](O[C@@H]2O[C@H](C)C[C@H](N(C)C)[C@H]2O)[C@](C)(O)C[C@@H](C)CN(C)[C@H](C)[C@@H](O)[C@]1(C)O [Azithromycin] + CO[C@@]12[C@H](COC(N)=O)C3=C(C(=O)C(C)=C(N)C3=O)N1C[C@@H]1N[C@@H]12 [Mitomycin C]
fitness
Conditions | first compound 0.125 µg/mL | first compound 0.25 µg/mL | first compound 0.5 µg/mL
S. aureus DSM 20231 [2], partner 0.0156 µg/mL | 0.674 | 0.701 | 0.366
S. aureus DSM 20231 [2], partner 0.0312 µg/mL | 0.661 | 0.664 | 0.314
S. aureus DSM 20231 [2], partner 0.0625 µg/mL | 0.547 | 0.491 | 0.171
S. aureus Newman, partner 0.0156 µg/mL | 0.719 | 0.726 | 0.561
S. aureus Newman, partner 0.0312 µg/mL | 0.671 | 0.638 | 0.53
S. aureus Newman, partner 0.0625 µg/mL | 0.559 | 0.551 | 0.365

CC[C@H]1OC(=O)[C@H](C)[C@@H](O[C@H]2C[C@@](C)(OC)[C@@H](O)[C@H](C)O2)[C@H](C)[C@@H](O[C@@H]2O[C@H](C)C[C@H](N(C)C)[C@H]2O)[C@](C)(O)C[C@@H](C)CN(C)[C@H](C)[C@@H](O)[C@]1(C)O [Azithromycin] + Cc1c(Cl)cccc1Nc1ccccc1C(=O)O [Tolfenamic]
Conditions | Bliss interaction score
S. aureus DSM 20231 [1] | -0.292

CC[C@H]1OC(=O)[C@H](C)[C@@H](O[C@H]2C[C@@](C)(OC)[C@@H](O)[C@H](C)O2)[C@H](C)[C@@H](O[C@@H]2O[C@H](C)C[C@H](N(C)C)[C@H]2O)[C@](C)(O)C[C@@H](C)CN(C)[C@H](C)[C@@H](O)[C@]1(C)O [Azithromycin] + N[C@@H]1CONC1=O [Cycloserine D]
fitness
Conditions | first compound 0.125 µg/mL | first compound 0.25 µg/mL | first compound 0.5 µg/mL
B. subtilis 168, partner 0.125 µg/mL | – | 0.946 | 0.884
B. subtilis 168, partner 0.25 µg/mL | – | 0.918 | 0.854
B. subtilis 168, partner 0.5 µg/mL | – | 0.892 | 0.826
S. aureus DSM 20231 [2], partner 0.375 µg/mL | 0.935 | 0.881 | –
S. aureus DSM 20231 [2], partner 0.75 µg/mL | 0.887 | 0.869 | –
S. aureus DSM 20231 [2], partner 1.5 µg/mL | 0.948 | 0.881 | –
S. aureus Newman, partner 0.375 µg/mL | 0.887 | 0.868 | 0.674
S. aureus Newman, partner 0.75 µg/mL | 0.906 | 0.908 | –
S. aureus Newman, partner 1.5 µg/mL | 0.898 | 0.905 | 0.665

B. subtilis 168, first compound 2 µg/mL, one replicate
Conditions | fitness
partner 0.125 µg/mL | 0.348
partner 0.25 µg/mL | 0.0742
partner 0.5 µg/mL | 0.066

CC[C@H]1OC(=O)[C@H](C)[C@@H](O[C@H]2C[C@@](C)(OC)[C@@H](O)[C@H](C)O2)[C@H](C)[C@@H](O[C@@H]2O[C@H](C)C[C@H](N(C)C)[C@H]2O)[C@](C)(O)C[C@@H](C)CN(C)[C@H](C)[C@@H](O)[C@]1(C)O [Azithromycin] + O=C(O)c1cc(-c2ccc(F)cc2F)ccc1O [Diflunisal]
Conditions | Bliss interaction score
S. aureus DSM 20231 [1] | -0.146

CN(C)CCCN1c2ccccc2Sc2ccc(Cl)cc21 [Chlorpromazine] + CC(=O)NC[C@H]1CN(c2ccc(N3CCOCC3)c(F)c2)C(=O)O1 [Linezolid]
Conditions | Bliss interaction score
S. aureus DSM 20231 [1] | -0.236

O=C(O)[C@H]1/C(=C/CO)O[C@@H]2CC(=O)N21 [Clavulanic acid] + CN[C@@H]1[C@H](O[C@H]2[C@H](O[C@H]3[C@H](O)[C@@H](O)[C@H](N=C(N)N)[C@@H](O)[C@@H]3N=C(N)N)O[C@@H](C)[C@]2(O)C=O)O[C@@H](CO)[C@H](O)[C@H]1O [Streptomycin]
fitness
Conditions | first compound 0.5 µg/mL | first compound 1 µg/mL | first compound 1.5 µg/mL | first compound 2 µg/mL | first compound 3 µg/mL | first compound 6 µg/mL
B. subtilis 168, partner 2 µg/mL | – | – | 0.963 | – | 0.93 | 0.804
B. subtilis 168, partner 8 µg/mL | – | – | 0.0564 | – | 0.0395 | 0.0332
S. pneumoniae D39V, partner 2 µg/mL | 0.955 | 0.899 | – | 0.757 | – | –
S. pneumoniae D39V, partner 4 µg/mL | 0.929 | 0.886 | – | 0.78 | – | –
S. pneumoniae D39V, partner 8 µg/mL | 0.901 | 0.855 | – | 0.768 | – | –

fitness, one replicate
Conditions | first compound 0.03125 µg/mL | first compound 0.0625 µg/mL | first compound 0.125 µg/mL | first compound 0.5 µg/mL | first compound 1 µg/mL | first compound 2 µg/mL
S. aureus Newman, partner 2 µg/mL | 0.945 | ≥ 1 | 0.991 | – | – | –
S. aureus Newman, partner 4 µg/mL | 0.937 | 0.936 | 0.938 | – | – | –
S. aureus Newman, partner 8 µg/mL | 0.753 | 0.786 | 0.786 | – | – | –
S. pneumoniae D39V, partner 16 µg/mL | – | – | – | 0.761 | 0.774 | 0.649

O=C(O)[C@H]1/C(=C/CO)O[C@@H]2CC(=O)N21 [Clavulanic acid] + CO/N=C(\C(=O)N[C@@H]1C(=O)N2C(C(=O)O)=C(COC(C)=O)CS[C@H]12)c1csc(N)n1 [Cefotaxime]
fitness, one replicate
Conditions | partner 0.00775 µg/mL | partner 0.0155 µg/mL | partner 0.031 µg/mL | partner 0.0625 µg/mL | partner 0.078 µg/mL | partner 0.125 µg/mL | partner 0.156 µg/mL | partner 0.25 µg/mL | partner 0.312 µg/mL
B. subtilis 168, first compound 1.5 µg/mL | 0.759 | 0.65 | 0.525 | 0.486 | – | 0.286 | – | 0.225 | –
B. subtilis 168, first compound 3 µg/mL | 0.722 | 0.593 | 0.489 | 0.455 | – | 0.322 | – | 0.15 | –
B. subtilis 168, first compound 6 µg/mL | 0.637 | 0.467 | 0.384 | 0.391 | – | 0.258 | – | 0.185 | –
S. aureus Newman, first compound 0.03125 µg/mL | – | – | – | – | 0.994 | – | 0.8 | – | 0.807
S. aureus Newman, first compound 0.0625 µg/mL | – | – | – | – | 0.898 | – | 0.741 | – | 0.683
S. aureus Newman, first compound 0.125 µg/mL | – | – | – | – | 0.822 | – | 0.703 | – | 0.709

Conditions | fitness
B. subtilis 168, first compound 1.5 µg/mL, partner 0.5 µg/mL | 0.232
B. subtilis 168, first compound 1.5 µg/mL, partner 1 µg/mL | 0.154
B. subtilis 168, first compound 1.5 µg/mL, partner 2 µg/mL | 0.0721
B. subtilis 168, first compound 3 µg/mL, partner 0.5 µg/mL | 0.218
B. subtilis 168, first compound 3 µg/mL, partner 1 µg/mL | 0.118
B. subtilis 168, first compound 3 µg/mL, partner 2 µg/mL | 0.0681
B. subtilis 168, first compound 6 µg/mL, partner 0.5 µg/mL | 0.14
B. subtilis 168, first compound 6 µg/mL, partner 1 µg/mL | 0.0836
B. subtilis 168, first compound 6 µg/mL, partner 2 µg/mL | 0.0583
S. pneumoniae D39V, first compound 0.5 µg/mL, partner 0.0018 µg/mL | 0.99
S. pneumoniae D39V, first compound 0.5 µg/mL, partner 0.0035 µg/mL | 0.966
S. pneumoniae D39V, first compound 1 µg/mL, partner 0.0018 µg/mL | 0.971
S. pneumoniae D39V, first compound 1 µg/mL, partner 0.0035 µg/mL | 0.927
S. pneumoniae D39V, first compound 1 µg/mL, partner 0.007 µg/mL | 0.789
S. pneumoniae D39V, first compound 2 µg/mL, partner 0.0018 µg/mL | 0.844
S. pneumoniae D39V, first compound 2 µg/mL, partner 0.0035 µg/mL | 0.824
S. pneumoniae D39V, first compound 2 µg/mL, partner 0.007 µg/mL | 0.582
